Reference: PMC6792352, “Limited Chemical Structural Diversity Found to Modulate Thyroid Hormone Receptor in the Tox21 Chemical Library” (Environmental Health Perspectives, 2019)
Structures can show the parent of a compound that is named as a salt.

Assay: in vitro
Settings: rat, gh3-tre-luc cells, AC50 (uM) modified / 1000

SMILES | CC50 at 24 h [µM]
CC(=O)O[C@H]1C[C@@H]2CC[C@@H]3[C@H](CC[C@@]4(C)[C@H]3C[C@H]([N+]3(C)CCCCC3)[C@@H]4OC(C)=O)[C@@]2(C)C[C@@H]1[N+]1(C)CCCCC1 [Pancuronium bromide] | > 50
CCCCOC(=O)c1ccccc1C(=O)OCCCC [Dibutyl phthalate] | > 90
CC(C)=CCC/C(C)=C/C=N/O [Citral oxime] | > 90
CN1C(C)(C)CCCC1(C)C [Pempidine d-tartaric acid] | > 50
NC(=O)[C@@H]1C[C@]2(NC(=O)NC2=O)c2cc(F)ccc2O1 [Fidarestat] | > 50
CCc1cn([C@H]2C[C@H](O)[C@@H](CO)O2)c(=O)[nH]c1=O [Edoxudine] | > 50
c1ccc2c(c1)CCCC2C1=NCCN1 (stereo not shown) [Tetrahydrozoline hydrochloride] | > 50
CCCCCCCCCCCCCCCCN(C)C [Dimethylcetylamine] | > 5
Cc1cc(C(C)(C)C)c(O)c(C)c1CC1=NCCN1 [Oxymetazoline] | > 50
OC[C@H]1O[C@@H](n2cnc3c(O)ncnc32)[C@H](O)[C@@H]1O [Inosine] | > 50
O=C(O)CCSSCCC(=O)O [3,3'-Dithiodipropionic acid] | > 90
CC1(C)[C@H](C(=O)O[C@H](C#N)c2cccc(Oc3ccccc3)c2)[C@@H]1C=C(Br)Br [Deltamethrin] | > 100
COC(=O)Nc1nc2ccc(C(=O)c3cccs3)cc2[nH]1 [Nocodazole] | 0.337
C(=C\c1ccccc1)/c1ccccc1 [trans-Stilbene] | > 100
COCCOC(=O)CC#N [2-Methoxyethyl cyanoacetate] | > 90
CCCCOC(=O)COC(=O)c1ccccc1C(=O)OCCCC [Butylphthalyl butylglycolate] | > 90
Cc1ccc(Cl)cc1 [4-Chlorotoluene] | > 100
COc1cc(N)c(Cl)cc1C(=O)NC1CCN(CCCOc2ccc(F)cc2)CC1OC (stereo not shown) [Cisapride] | 13
C[N+](C)(C)CCOC(=O)C(O)(c1ccccc1)c1ccccc1 [Metocinium iodide] | > 50
O=C1CCCc2ccccc21 [1,2,3,4-Tetrahydronaphthalen-1-one] | > 90
CCOc1ccc(NC(N)=O)cc1 [Dulcin] | > 90
CN1CC[C@@]23CCCC[C@@H]2[C@@H]1Cc1ccc(O)cc13 [Dextrorphan tartrate] | > 50

SMILES | CC50 at 24 h [µM]
CCOC(=O)CC(C)=O [Ethyl acetoacetate] | > 90
CC(=O)O[Si](C)(OC(C)=O)OC(C)=O [Methylsilanetriyl triacetate] | > 90
CC(=O)C(=O)O [Pyruvic acid] | > 90
COc1cc(NS(=O)(=O)c2ccc(N)cc2)nc(OC)n1 [Sulfadimethoxine] | > 20
COc1cc(/C=C/C(=O)O[C@H]2CC[C@]34C[C@]35CC[C@]3(C)[C@@H]([C@H](C)CCC=C(C)C)CC[C@@]3(C)[C@@H]5CC[C@H]4C2(C)C)ccc1O [gamma-Oryzanol] | > 50
CCn1cc[n+](C)c1C [1-Ethyl-2,3-dimethylimidazolium bromide] | > 90
COC(=O)C(C)N(C(=O)c1ccco1)c1c(C)cccc1C (stereo not shown) [Furalaxyl] | > 90
C=C1/C(=C\C=C2/CCC[C@]3(C)[C@@H]([C@H](C)/C=C/[C@@H](O)C4CC4)CC[C@@H]23)C[C@@H](O)C[C@@H]1O [Calcipotriene] | 34.7
CC(C)(C)c1ccc2c(S(=O)(=O)O)c(C(C)(C)C)ccc2c1 [Sodium dibunate] | > 50
CCCCCCCCCCCCCC(=O)O [Tetradecanoic acid] | > 90
CN[C@@H](C)Cc1ccccc1 [S-(+)-Methamphetamine hydrochloride] | > 90
C=C[C@](C)(O)CC[C@@H]1[C@@]2(C)CCCC(C)(C)[C@@H]2CC[C@@]1(C)O [Sclareol] | 29.3
CS(=O)(=O)NC(=O)c1cc(Oc2ccc(C(F)(F)F)cc2Cl)ccc1[N+](=O)[O-] [Fomesafen] | > 90
CCc1ccc(C(=O)NN(C(=O)c2cc(C)cc(C)c2)C(C)(C)C)cc1 [Tebufenozide] | 2.75
C=C[Si](OC)(OC)OC [Vinyltrimethoxysilane] | > 90
O=C1Nc2ccccc2C1=O [Isatin] | > 90
CC(C)(C)c1ccc(-c2ccc(C(C)(C)C)cc2)cc1 [4,4'-Di-tert-butylbiphenyl] | > 90
Cc1nc(-c2ccccn2)ncc1C(=O)Nn1cc(C)c2cc(F)ccc21 [SAR102608] | > 90
COc1cc(O)c(C(=O)c2ccccc2)cc1S(=O)(=O)O [Sulisobenzone] | > 90
CCCCCCCCCCCCI [1-Iodododecane] | > 90
COCC(C)OCC(C)OC(C)=O (stereo not shown) [Dipropyleneglycol methyl ether acetate] | > 90
Cc1ccccc1Cl [2-Chlorotoluene] | > 90

SMILES | CC50 at 24 h [µM]
CC(=O)OCC(=O)[C@@]1(O)CC[C@H]2[C@@H]3CCC4=CC(=O)C=C[C@]4(C)[C@@]3(F)[C@@H](O)C[C@@]21C [Isoflupredone acetate] | > 20
CC(C)N(C)C [Dimethylisopropylamine] | > 90
CCOCCn1c(N2CCCN(C)CC2)nc2ccccc21 [Emedastine difumarate] | > 50
CC(=O)Nc1ccc(S(=O)(=O)Nc2cc(C)on2)cc1 [N-Acetyl sulfamethoxazole] | > 50
NC(N)=S [Thiourea] | > 90
OCCN1CCN(CCCN2c3ccccc3Sc3ccc(C(F)(F)F)cc32)CC1 [Fluphenazine] | 5.76
O=C(c1ccccc1)C1(O)CCCCC1 [(1-Hydroxycyclohexyl)(phenyl)methanone] | > 90
COC(OC)C(C)c1ccccc1 (stereo not shown) [2-Phenylpropionaldehyde dimethyl acetal] | > 90
O=C(c1ccc(O)cc1)c1ccc(O)cc1O [2,4,4'-Trihydroxybenzophenone] | > 90
COc1cc(C)ccc1C(C)C [2-Methoxy-4-methyl-1-(propan-2-yl)benzene] | > 90
On1ccccc1=S [Sodium (2-pyridylthio)-N-oxide] | 1.83
CC1(C)CCC(Cc2ccc(Cl)cc2)C1(O)Cn1cncn1 (stereo not shown) [Metconazole] | 82.6
CC1(C)C(=O)N(Br)C(=O)N1Br [1,3-Dibromo-5,5-dimethylhydantoin] | > 90
CC(C)(C)NCC(O)COc1cccc2c1CCC(=O)N2 (stereo not shown) [Carteolol hydrochloride] | > 20
C[C@H]1C[C@H]2[C@@H]3CCC4=CC(=O)C=C[C@]4(C)[C@@]3(F)[C@@H](O)C[C@]2(C)[C@@]1(O)C(=O)CCl [Clobetasol] | > 50
CN(C)CCOC1=Cc2ccccc2Sc2ccc(Cl)cc21 [Zotepine] | 6.89
Oc1ccc(Cl)c2c1CCC2 [Chlorindanol] | > 50
CCCCOC(=O)CCC(C)=O [Butyl 4-oxopentanoate] | > 90
COc1cc(Cc2cnc(N)nc2N)cc(OC)c1OC [Trimethoprim] | > 90
CCNc1nc(Cl)nc(NCC)n1 [Simazine] | > 90
CCN1CCCC(OC(=O)C(c2ccccc2)c2ccccc2)C1 (stereo not shown) [Piperidolate hydrochloride] | 11.6

Same assay, conditions: rat, gh3-tre-luc cells, AC50 (uM) modified / 1000, Tox21_110001=Tox21_110893; viability, 1 nM T3 present, 24 h

SMILES | CC50 at 24 h [µM]
C[C@]12CCC(=O)C=C1CC[C@@H]1[C@@H]2CC[C@]2(C)C(=O)CC[C@@H]12 [4-Androstene-3,17-dione] | > 50

Same assay, conditions: rat, gh3-tre-luc cells, AC50 (uM) modified / 1000, Tox21_110001=Tox21_111146; viability, 1 nM T3 present, 24 h

SMILES | CC50 at 24 h [µM]
Oc1ccc(Cl)cc1Cc1ccccc1 [Clorophene] | 23.9

Same assay, conditions: rat, gh3-tre-luc cells, AC50 (uM) modified / 1000, Tox21_110001=Tox21_111647; viability, 1 nM T3 present, 24 h

SMILES | CC50 at 24 h [µM]
C[C@]12C=CC(=O)C=C1CC[C@@H]1[C@@H]2CC[C@@]2(C)[C@H]1CC[C@]2(C)O [Methandrostenolone] | > 50

Same assay, conditions: rat, gh3-tre-luc cells, AC50 (uM) modified / 1000, Tox21_110001=Tox21_112852; viability, 1 nM T3 present, 24 h

SMILES | CC50 at 24 h [µM]
CC(Cc1ccc2c(c1)OCO2)NO (stereo not shown) [1-(1,3-Benzodioxol-5-yl)-N-hydroxypropan-2-amine hydrochloride] | > 100

Same assay, conditions: rat, gh3-tre-luc cells, AC50 (uM) modified / 1000, Tox21_110001=Tox21_200156; viability, 1 nM T3 present, 24 h

SMILES | CC50 at 24 h [µM]
Brc1ccc(Oc2cc(Br)c(Br)cc2Br)c(Br)c1 [2,2',4,4',5-Pentabromodiphenyl ether] | > 90

Same assay, conditions: rat, gh3-tre-luc cells, AC50 (uM) modified / 1000, Tox21_110001=Tox21_200342; viability, 1 nM T3 present, 24 h

SMILES | CC50 at 24 h [µM]
OCC(Cl)CCl (stereo not shown) [2,3-Dichloro-1-propanol] | > 90

Same assay, conditions: rat, gh3-tre-luc cells, AC50 (uM) modified / 1000, Tox21_110001=Tox21_200356; viability, 1 nM T3 present, 24 h

SMILES | CC50 at 24 h [µM]
CC(C)Br [2-Bromopropane] | > 90

Same assay, conditions: rat, gh3-tre-luc cells, AC50 (uM) modified / 1000, Tox21_110001=Tox21_200522; viability, 1 nM T3 present, 24 h

SMILES | CC50 at 24 h [µM]
O=C1CCCCC1Cl (stereo not shown) [2-Chlorocyclohexanone] | > 90

Same assay, conditions: rat, gh3-tre-luc cells, AC50 (uM) modified / 1000, Tox21_110001=Tox21_200899; viability, 1 nM T3 present, 24 h

SMILES | CC50 at 24 h [µM]
O=[N+]([O-])C(Br)Br [Dibromonitromethane] | > 90

Same assay, conditions: rat, gh3-tre-luc cells, AC50 (uM) modified / 1000, Tox21_110001=Tox21_202269; viability, 1 nM T3 present, 24 h

SMILES | CC50 at 24 h [µM]
C[C@]12CCC(=O)C=C1CC[C@@H]1[C@@H]2CC[C@]2(C)C(=O)CC[C@@H]12 [4-Androstene-3,17-dione] | > 90

Same assay, conditions: rat, gh3-tre-luc cells, AC50 (uM) modified / 1000, Tox21_110001=Tox21_202985; viability, 1 nM T3 present, 24 h

SMILES | CC50 at 24 h [µM]
Oc1ccc(Cl)cc1Cc1ccccc1 [Clorophene] | 43.2

Same assay, conditions: rat, gh3-tre-luc cells, AC50 (uM) modified / 1000, Tox21_110001=Tox21_301328; viability, 1 nM T3 present, 24 h

SMILES | CC50 at 24 h [µM]
COP(N)(=S)Oc1ccccc1C(=O)OC(C)C (stereo not shown) [Isocarbophos] | > 90

Same assay, conditions: rat, gh3-tre-luc cells, AC50 (uM) modified / 1000, Tox21_110001=Tox21_302181; viability, 1 nM T3 present, 24 h

SMILES | CC50 at 24 h [µM]
OCCSSCCO [2-Hydroxyethyl disulfide] | > 90

Same assay, conditions: rat, gh3-tre-luc cells, AC50 (uM) modified / 1000, Tox21_110001=Tox21_400046; viability, 1 nM T3 present, 24 h

SMILES | CC50 at 24 h [µM]
Oc1ccc(Cl)cc1Cc1ccccc1 [Clorophene] | 61.9
